Laboratory results: PMC7434893 (British Journal of Cancer, 2020)
“And” between values parts separate entries of the source, which are not always exact repeats. Identical values can stand only once. Like-named read-outs stand apart in the source and are kept apart here.

Legend:
NCI-H446 = test: 8-day growth inhibition; assay type: cell-based; details: SCLC, NCI-H446, 8-day assay
HCC70 = test: 8-day growth inhibition; assay type: cell-based; details: Breast, HCC70, 8-day assay
JVM-2 = test: 8-day growth inhibition; assay type: cell-based; details: MCL, JVM-2, 8-day assay

O=c1[nH]nc2c3c(cccc13)N=C(CN1Cc3ccccc3C1)N2 [E7449]
Abdominal pain, treatment-related AE (50 mg (n = 3)): 0% | Anaemia, treatment-related AE (50 mg (n = 3)): 33.3% | Chromaturia, treatment-related AE (50 mg (n = 3)): 0% | Constipation, treatment-related AE (50 mg (n = 3)): 33.3% | Decreased appetite, treatment-related AE (50 mg (n = 3)): 33.3% | Depression, treatment-related AE (50 mg (n = 3)): 0% | Diarrhoea, treatment-related AE (50 mg (n = 3)): 33.3% | Dizziness, treatment-related AE (50 mg (n = 3)): 0% | Dry skin, treatment-related AE (50 mg (n = 3)): 0% | Dysgeusia, treatment-related AE (50 mg (n = 3)): 0% | Erythematous rash, treatment-related AE (50 mg (n = 3)): 0% | Fatigue, treatment-related AE (50 mg (n = 3)): 33.3% | Increased blood alkaline phosphatase, treatment-related AE (50 mg (n = 3)): 0% | Maculopapular rash, treatment-related AE (50 mg (n = 3)): 0% | Nausea, treatment-related AE (50 mg (n = 3)): 33.3% | Onycholysis, treatment-related AE (50 mg (n = 3)): 0% | Periorbital oedema, treatment-related AE (50 mg (n = 3)): 0% | Photosensitivity reaction, treatment-related AE (50 mg (n = 3)): 33.3% | Pruritus, treatment-related AE (50 mg (n = 3)): 0% | Skin hyperpigmentation, treatment-related AE (50 mg (n = 3)): 0% | Vomiting, treatment-related AE (50 mg (n = 3)): 33.3% | Patients with dose-limiting toxicity, n (%) (50 mg cohort, 3 evaluable): 0 n (%) | Abdominal pain, treatment-related AE (100 mg (n = 3)): 33.3% | Anaemia, treatment-related AE (100 mg (n = 3)): 0% | Chromaturia, treatment-related AE (100 mg (n = 3)): 0% | Constipation, treatment-related AE (100 mg (n = 3)): 33.3% | Decreased appetite, treatment-related AE (100 mg (n = 3)): 0% | Depression, treatment-related AE (100 mg (n = 3)): 33.3% | Diarrhoea, treatment-related AE (100 mg (n = 3)): 33.3% | Dizziness, treatment-related AE (100 mg (n = 3)): 0% | Dry skin, treatment-related AE (100 mg (n = 3)): 33.3% | Dysgeusia, treatment-related AE (100 mg (n = 3)): 0% | Erythematous rash, treatment-related AE (100 mg (n = 3)): 0% | Fatigue, treatment-related AE (100 mg (n = 3)): 66.7% | Increased blood alkaline phosphatase, treatment-related AE (100 mg (n = 3)): 0% | Maculopapular rash, treatment-related AE (100 mg (n = 3)): 33.3% | Nausea, treatment-related AE (100 mg (n = 3)): 33.3% | Onycholysis, treatment-related AE (100 mg (n = 3)): 0% | Periorbital oedema, treatment-related AE (100 mg (n = 3)): 0% | Photosensitivity reaction, treatment-related AE (100 mg (n = 3)): 33.3% | Pruritus, treatment-related AE (100 mg (n = 3)): 33.3% | Skin hyperpigmentation, treatment-related AE (100 mg (n = 3)): 33.3% | Vomiting, treatment-related AE (100 mg (n = 3)): 0% | Patients with dose-limiting toxicity, n (%) (100 mg cohort, 3 evaluable): 0 n (%) | Abdominal pain, treatment-related AE (200 mg (n = 4)): 0% | Anaemia, treatment-related AE (200 mg (n = 4)): 0% | Chromaturia, treatment-related AE (200 mg (n = 4)): 0% | Constipation, treatment-related AE (200 mg (n = 4)): 0% | Decreased appetite, treatment-related AE (200 mg (n = 4)): 0% | Depression, treatment-related AE (200 mg (n = 4)): 25.0% | Diarrhoea, treatment-related AE (200 mg (n = 4)): 0% | Dizziness, treatment-related AE (200 mg (n = 4)): 0% | Dry skin, treatment-related AE (200 mg (n = 4)): 0% | Dysgeusia, treatment-related AE (200 mg (n = 4)): 0% | Erythematous rash, treatment-related AE (200 mg (n = 4)): 0% | Fatigue, treatment-related AE (200 mg (n = 4)): 0% | Increased blood alkaline phosphatase, treatment-related AE (200 mg (n = 4)): 0% | Maculopapular rash, treatment-related AE (200 mg (n = 4)): 25.0% | Nausea, treatment-related AE (200 mg (n = 4)): 50.0% | Onycholysis, treatment-related AE (200 mg (n = 4)): 0% | Periorbital oedema, treatment-related AE (200 mg (n = 4)): 0% | Photosensitivity reaction, treatment-related AE (200 mg (n = 4)): 0% | Pruritus, treatment-related AE (200 mg (n = 4)): 0% | Skin hyperpigmentation, treatment-related AE (200 mg (n = 4)): 0% | Vomiting, treatment-related AE (200 mg (n = 4)): 25.0% | Patients with dose-limiting toxicity, n (%) (200 mg cohort, 4 evaluable): 0 n (%) | Abdominal pain, treatment-related AE (400 mg (n = 4)): 25.0% | Anaemia, treatment-related AE (400 mg (n = 4)): 0% | Chromaturia, treatment-related AE (400 mg (n = 4)): 50.0% | Constipation, treatment-related AE (400 mg (n = 4)): 0% | Decreased appetite, treatment-related AE (400 mg (n = 4)): 25.0% | Depression, treatment-related AE (400 mg (n = 4)): 50.0% | Diarrhoea, treatment-related AE (400 mg (n = 4)): 50.0% | Dizziness, treatment-related AE (400 mg (n = 4)): 0% | Dry skin, treatment-related AE (400 mg (n = 4)): 0% | Dysgeusia, treatment-related AE (400 mg (n = 4)): 0% | Erythematous rash, treatment-related AE (400 mg (n = 4)): 0% | Fatigue, treatment-related AE (400 mg (n = 4)): 75.0% | Increased blood alkaline phosphatase, treatment-related AE (400 mg (n = 4)): 25.0% | Maculopapular rash, treatment-related AE (400 mg (n = 4)): 25.0% | Nausea, treatment-related AE (400 mg (n = 4)): 25.0% | Onycholysis, treatment-related AE (400 mg (n = 4)): 25.0% | Periorbital oedema, treatment-related AE (400 mg (n = 4)): 25.0% | Photosensitivity reaction, treatment-related AE (400 mg (n = 4)): 25.0% | Pruritus, treatment-related AE (400 mg (n = 4)): 0% | Skin hyperpigmentation, treatment-related AE (400 mg (n = 4)): 0% | Vomiting, treatment-related AE (400 mg (n = 4)): 0% | Patients with dose-limiting toxicity, n (%) (400 mg cohort, 3 evaluable): 0 n (%) | Abdominal pain, treatment-related AE (600 mg (n = 21)): 0% | Anaemia, treatment-related AE (600 mg (n = 21)): 9.5% | Chromaturia, treatment-related AE (600 mg (n = 21)): 66.7% | Constipation, treatment-related AE (600 mg (n = 21)): 9.5% | Decreased appetite, treatment-related AE (600 mg (n = 21)): 23.8% | Depression, treatment-related AE (600 mg (n = 21)): 4.8% | Diarrhoea, treatment-related AE (600 mg (n = 21)): 23.8% | Dizziness, treatment-related AE (600 mg (n = 21)): 4.8% | Dry skin, treatment-related AE (600 mg (n = 21)): 4.8% | Dysgeusia, treatment-related AE (600 mg (n = 21)): 14.3% | Erythematous rash, treatment-related AE (600 mg (n = 21)): 9.5% | Fatigue, treatment-related AE (600 mg (n = 21)): 66.7% | Increased blood alkaline phosphatase, treatment-related AE (600 mg (n = 21)): 14.3% | Maculopapular rash, treatment-related AE (600 mg (n = 21)): 33.3% | Nausea, treatment-related AE (600 mg (n = 21)): 33.3% | Onycholysis, treatment-related AE (600 mg (n = 21)): 9.5% | Periorbital oedema, treatment-related AE (600 mg (n = 21)): 19.0% | Photosensitivity reaction, treatment-related AE (600 mg (n = 21)): 23.8% | Pruritus, treatment-related AE (600 mg (n = 21)): 19.0% | Skin hyperpigmentation, treatment-related AE (600 mg (n = 21)): 9.5% | Vomiting, treatment-related AE (600 mg (n = 21)): 14.3% | Dose-limiting-toxicity description (600 mg cohort): Grade 3 anaphylactic reaction | Patients with dose-limiting toxicity, n (%) (600 mg cohort, 6 evaluable): 1 (16.7) n (%) | Treatment-related grade 3 fatigue, patients (600 mg n = 2, 800 mg n = 2): 4 | Abdominal pain, treatment-related AE (800 mg (n = 6)): 16.7% | Anaemia, treatment-related AE (800 mg (n = 6)): 0% | Chromaturia, treatment-related AE (800 mg (n = 6)): 66.7% | Constipation, treatment-related AE (800 mg (n = 6)): 0% | Decreased appetite, treatment-related AE (800 mg (n = 6)): 50.0% | Depression, treatment-related AE (800 mg (n = 6)): 16.7% | Diarrhoea, treatment-related AE (800 mg (n = 6)): 50.0% | Dizziness, treatment-related AE (800 mg (n = 6)): 33.3% | Dry skin, treatment-related AE (800 mg (n = 6)): 33.3% | Dysgeusia, treatment-related AE (800 mg (n = 6)): 0% | Erythematous rash, treatment-related AE (800 mg (n = 6)): 16.7% | Fatigue, treatment-related AE (800 mg (n = 6)): 100.0% | Increased blood alkaline phosphatase, treatment-related AE (800 mg (n = 6)): 0% | Maculopapular rash, treatment-related AE (800 mg (n = 6)): 16.7% | Nausea, treatment-related AE (800 mg (n = 6)): 33.3% | Onycholysis, treatment-related AE (800 mg (n = 6)): 0% | Periorbital oedema, treatment-related AE (800 mg (n = 6)): 0% | Photosensitivity reaction, treatment-related AE (800 mg (n = 6)): 33.3% | Pruritus, treatment-related AE (800 mg (n = 6)): 0% | Skin hyperpigmentation, treatment-related AE (800 mg (n = 6)): 33.3% | Vomiting, treatment-related AE (800 mg (n = 6)): 33.3% | Dose-limiting-toxicity description (800 mg cohort): Grade 3 fatigue (n = 1) Grade 2 fatigue (n = 3) | Patients with dose-limiting toxicity, n (%) (800 mg cohort, 6 evaluable): 4 (66.7) n (%) | Treatment-emergent AEs associated with skin rash events, patients (17/41, doses ≥100 mg): 41.5% | Grade 4 AE (hypokalaemia, not treatment-related), patients (200-mg dose cohort): 1 | Treatment-emergent chromaturia, patients (400-mg dose cohort): 50.0% | Treatment-emergent AEs associated with skin rash events, patients (600-mg dose cohort): 47.6% | Treatment-emergent chromaturia, patients (600-mg dose cohort): 66.7% | Treatment-emergent AEs associated with skin rash events, patients (800-mg dose cohort): 66.7% | Treatment-emergent chromaturia, patients (800-mg dose cohort): 83.3% | Abdominal pain, treatment-related AE (Total (N = 41)): 7.3% | Anaemia, treatment-related AE (Total (N = 41)): 7.3% | Chromaturia, treatment-related AE (Total (N = 41)): 49% and 48.8% | Constipation, treatment-related AE (Total (N = 41)): 9.8% | Decreased appetite, treatment-related AE (Total (N = 41)): 24% and 24.4% | Depression, treatment-related AE (Total (N = 41)): 14.6% | Diarrhoea, treatment-related AE (Total (N = 41)): 29% and 29.3% | Dizziness, treatment-related AE (Total (N = 41)): 7.3% | Dry skin, treatment-related AE (Total (N = 41)): 9.8% | Dysgeusia, treatment-related AE (Total (N = 41)): 7.3% | Erythematous rash, treatment-related AE (Total (N = 41)): 7.3% | Fatigue, treatment-related AE (Total (N = 41)): 63% and 63.4% | Increased blood alkaline phosphatase, treatment-related AE (Total (N = 41)): 9.8% | Maculopapular rash, treatment-related AE (Total (N = 41)): 27% and 26.8% | Nausea, treatment-related AE (Total (N = 41)): 34% and 34.1% | Onycholysis, treatment-related AE (Total (N = 41)): 7.3% | Periorbital oedema, treatment-related AE (Total (N = 41)): 12.2% | Photosensitivity reaction, treatment-related AE (Total (N = 41)): 24% and 24.4% | Pruritus, treatment-related AE (Total (N = 41)): 12.2% | Skin hyperpigmentation, treatment-related AE (Total (N = 41)): 12.2% | Vomiting, treatment-related AE (Total (N = 41)): 17.1% | Grade 5 AEs (all cohorts): No grade 5 AEs | Grade 3 fatigue, patients (all cohorts, 7/41): 17.1% | Treatment discontinued due to AEs, patients (all cohorts, 7/41): 17% | Treatment-emergent chromaturia, patients (all cohorts, 21/41): 51.2% | Nonfatal SAEs, patients (all cohorts, 24/41): 58.5% | Grade 3 AEs, patients (all cohorts, 27 of 41 patients): 65.9% | Patients with treatment-related AEs (all cohorts, 39 patients): 95.1% | Grade 1 thrombocytopenia, patients (at the MTD, 1/21): 5% | Anaemia (≤grade 2), patients (at the MTD, 4/21): 19% | Patients with DLTs (of the 25 evaluable patients, all dose cohorts): 5 | Recommended phase 2 dose (oral, once daily): 600 mg | Maximum-tolerated dose (MTD) (oral, once daily, 28-day cycles): 600 mg | IC50 (NCI-H446): 0.61 µM | IC50 (HCC70): 9.3 µM | IC50 (JVM-2): 14 µM
